Measured values: ChEMBL document CHEMBL4402608 (J Med Chem, 2020)

Assays:
[1] = target: Atypical chemokine receptor 3 (Homo sapiens, UniProt P25106); test: Agonist activity at human PK1-tgged CXCR7 expressed in CHOK1 cells assessed as induction of beta-arrestin recruitment at 10 uM measured after 90 mins by beta-galactosidase based PathHunter assay; type: cell-based
[2] = target: T1, D(2) dopamine receptor (Homo sapiens, UniProt P14416); test: Agonist activity at human D2RS expressed in CHOK1/human U2OS cells assessed as induction of beta-arrestin recruitment at 10 uM measured after 90 mins by beta-galactosidase based PathHunter assay; type: cell-based
[3] = Displacement of [3H]-Flunitrazepam from rat brain GABA(A)/BzR site measured after 90 mins by microbeta scintillation counting method
[4] = target: D(4) dopamine receptor (Homo sapiens, UniProt P21917); test: Displacement of [3H]-N-methylspiperone from recombinant human D4 receptor stably expressed in HEK cell membranes measured after 90 mins by microbeta scintillation counting method
[5] = system: GABA PBR; test: Displacement of [3H]-PK11195 from rat brain GABA PBR at 10 uM measured after 90 mins by microbeta scintillation counting method relative to control; details: probe [3H]-PK11195
[6] = Displacement of [3H]-PK11195 from rat brain GABA PBR measured after 90 mins by microbeta scintillation counting method
[7] = target: T1, D(2) dopamine receptor; test: Agonist activity at human D2RL expressed in CHOK1/human U2OS cells assessed as induction of beta-arrestin recruitment at 10 uM measured after 90 mins by beta-galactosidase based PathHunter assay; type: cell-based
[8] = system: GABA(A)/BzR site; test: Displacement of [3H]-Flunitrazepam from rat brain GABA(A)/BzR site at 10 uM measured after 90 mins by microbeta scintillation counting method relative to control; details: probe [3H]-Flunitrazepam
[9] = target: Sigma non-opioid intracellular receptor 1 (Homo sapiens, UniProt Q99720); test: Displacement of [3H]-pentazocine from sigma1 receptor (unknown origin) after 90 mins by microbeta scintillation counting method
[10] = target: D(1B) dopamine receptor (Homo sapiens, UniProt P21918)
[11] = target: T2, Alpha-1A adrenergic receptor (Homo sapiens, UniProt P35348)
T2 sequence (P35348 whole entry): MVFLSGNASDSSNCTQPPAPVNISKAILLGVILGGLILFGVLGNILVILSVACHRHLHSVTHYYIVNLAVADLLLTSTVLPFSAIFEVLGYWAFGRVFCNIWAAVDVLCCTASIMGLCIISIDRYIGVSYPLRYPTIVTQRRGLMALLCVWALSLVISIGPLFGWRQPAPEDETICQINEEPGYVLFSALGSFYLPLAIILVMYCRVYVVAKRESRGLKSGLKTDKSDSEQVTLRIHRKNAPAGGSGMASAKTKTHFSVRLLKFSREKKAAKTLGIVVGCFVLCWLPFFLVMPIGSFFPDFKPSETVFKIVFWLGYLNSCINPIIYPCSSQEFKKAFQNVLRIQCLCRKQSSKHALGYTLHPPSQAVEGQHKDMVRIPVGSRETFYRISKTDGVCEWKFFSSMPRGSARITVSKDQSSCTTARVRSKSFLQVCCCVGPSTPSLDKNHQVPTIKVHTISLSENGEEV

[12] = target: Delta-type opioid receptor (Homo sapiens, UniProt P41143)
[13] = target: 5-hydroxytryptamine receptor 3A (Homo sapiens, UniProt P46098)
[14] = target: Muscarinic acetylcholine receptor M3 (Homo sapiens, UniProt P20309)
[15] = target: 5-hydroxytryptamine receptor 1B (Homo sapiens, UniProt P28222)
[16] = target: 5-hydroxytryptamine receptor 1E (Homo sapiens, UniProt P28566)
[17] = target: Muscarinic acetylcholine receptor M2 (Homo sapiens, UniProt P08172)
[18] = target: T3, Beta-2 adrenergic receptor (Homo sapiens, UniProt P07550); test: Displacement of [3H]-CGP12177 from recombinant human beta2 adrenergic receptor expressed in HEK Flp-In cell membranes at 10 uM measured after 90 mins by microbeta scintillation counting method relative to control; details: probe [3H]-CGP12177
[19] = target: Muscarinic acetylcholine receptor M1 (Homo sapiens, UniProt P11229)
[20] = target: beta3 adrenergic receptor (Homo sapiens, UniProt P13945)
[21] = target: 5-hydroxytryptamine receptor 5A (Homo sapiens, UniProt P47898)
[22] = target: T4, Alpha-2C adrenergic receptor (Homo sapiens, UniProt P18825)
T4 sequence (P18825 whole entry): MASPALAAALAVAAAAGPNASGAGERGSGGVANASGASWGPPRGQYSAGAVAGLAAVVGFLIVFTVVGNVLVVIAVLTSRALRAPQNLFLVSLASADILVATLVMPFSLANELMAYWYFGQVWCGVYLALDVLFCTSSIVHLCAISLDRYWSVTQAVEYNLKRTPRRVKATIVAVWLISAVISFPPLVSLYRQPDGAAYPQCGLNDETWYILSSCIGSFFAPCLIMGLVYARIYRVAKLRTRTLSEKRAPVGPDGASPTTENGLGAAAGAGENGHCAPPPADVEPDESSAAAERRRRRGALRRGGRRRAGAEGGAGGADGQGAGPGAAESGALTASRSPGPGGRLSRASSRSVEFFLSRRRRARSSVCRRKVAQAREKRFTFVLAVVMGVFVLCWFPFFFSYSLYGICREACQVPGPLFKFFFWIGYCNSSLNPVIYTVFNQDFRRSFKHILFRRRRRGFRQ

[23] = target: T3, Beta-2 adrenergic receptor; test: Displacement of [3H]-CGP12177 from recombinant human beta2 adrenergic receptor expressed in HEK Flp-In cell membranes measured after 90 mins by microbeta scintillation counting method

CCCN(CC[C@]1(O)C[C@H](NC(=O)c2ccc3ccccc3c2)C1)[C@H]1CCc2nc(N)sc2C1
Activity [1]: Active | Activity [2]: Active | Ki [3]: Not Active | Ki [4]: 0.045 µM | inhibition at […], 10 µM [5]: < 50% | Ki [6]: Not Active | Activity [7]: Active | inhibition at […], 10 µM [8]: < 50%

CCCN[C@H]1CCc2nc(N)sc2C1 [PRAMIPEXOLE]
Ki [9]: 4.45 µM | Ki [10]: > 10 µM | Ki [11]: > 10 µM | Ki [12]: > 10 µM | Ki [13]: > 10 µM | Ki [14]: > 10 µM | Ki [15]: 3.51 µM | Ki [16]: > 10 µM | Ki [17]: > 10 µM | inhibition at […], 10 µM [18]: > 50% | Ki [19]: > 10 µM | Ki [20]: > 10 µM | Ki [21]: > 10 µM | Ki [22]: 0.0522 µM | Ki [23]: > 10 µM
